This passage reports cytotoxicity results from ChEMBL document CHEMBL3507680, “University of Dundee, Gates Library screen for HepG2 cell viability”.

SMILES strings stand for the structures.

This data set in a line: Human HepG2 cell viability assay in 384 well format. It is filed as toxicity, cell-based. Also noted: dose 125 nL, time 70.5 hour; cytotoxicity at 70.5 h: concentration not given beside the values. The settings on record: HepG2 cells, read-out: Inhibition.
With `CN1CC2(CCN(C(=O)c3cccc(-n4cccn4)c3)CC2)OC1=O`, the cytotoxicity at 70.5 h stood at 21.3%.
With `CCn1cc(CN2CCCN(C3Cc4ccccc4C3)CC2)cn1`, the cytotoxicity at 70.5 h was -7.57%.
As for `O=C(c1cc(-c2ccco2)nc2c(Cl)cccc12)N1CC[C@H]2CNC[C@H]21`, the cytotoxicity at 70.5 h is 19.8%.
As to `Cc1ncc2c(c1CNC(=O)C1(C)CCCCO1)CCNC2` (stereo unspecified), the cytotoxicity at 70.5 h worked out at 0.49%.
With `COc1nccnc1N1CCN(Cc2cccc(F)c2)C(=O)C1` the figure was 16.1%; with `COc1ccc(NC(=O)N2CCCC(CO)C2)c(C)c1` (stereo unspecified), -6.09%.
`CC(C)=CCn1ncc(N2CCOCC2)cc1=O`: the cytotoxicity at 70.5 h is -1.75%.
Turning to `CCc1c(C(=O)N2CCC3(CCCN(CCO)C3=O)C2)csc1C` (stereo unspecified), the cytotoxicity at 70.5 h was found to be 6.16%.
With `CCN(Cc1nc(C)no1)C(=O)C1CC(=O)N(Cc2ccccn2)C1` (stereo unspecified) the figure was -13.9%; with `CC(C)Cc1noc(CN(C)c2cc(C(C)C)nc3ccnn23)n1`, 5.41%; with `Cc1cc(NCCS(C)(=O)=O)n2nc(C)cc2n1`, 4.45%.
With `O=C1O[C@@H]2CN(Cc3cccc(O)c3)C[C@@H]2N1CCCN1CCOCC1` the figure was -4.83%; with `CSCC(C)NCc1ccc2[nH]c(C)c(C)c2c1` (stereo unspecified), 1.07%.
Regarding `NCCn1cc(C(=O)N2CCCCCC2c2ccco2)nn1` (stereo unspecified), the cytotoxicity at 70.5 h was -8.2%.
For the molecule `Cc1ccc(-c2cc(C(=O)NCCCc3csc(N)n3)[nH]n2)o1`, the cytotoxicity at 70.5 h stood at 1.47%.
As for `CCCc1cnc(C)nc1N1CCC(Cc2cccc(C(N)=O)c2)C1` (stereo unspecified), the cytotoxicity at 70.5 h is -2.67%.
For `CS(=O)(=O)N1CCc2[nH]cnc2C12CCN(C1CCOCC1)CC2`, the cytotoxicity at 70.5 h is -6.93%.
Turning to `O=C1[C@H]2CC[C@H](CN(C3CCOCC3)C2)N1Cc1cscn1`, the cytotoxicity at 70.5 h amounted to 23.4%.
For `CC(C)[C@@H]1CN(S(=O)(=O)Cc2ccccc2)C[C@H]1NS(=O)(=O)N(C)C`, the cytotoxicity at 70.5 h was -2.27%.
In the case of `FC(F)(F)c1ccc(-c2n[nH]c3c2CN(CC2CCOC2)CC3)cc1` (stereo unspecified), the cytotoxicity at 70.5 h is -15.3%.
Regarding `C[C@@H]1CN(c2ccc(Cl)cn2)C[C@]1(C)O`, the cytotoxicity at 70.5 h is 3.11%.
With `Cn1ccnc1CN(CCO)C(=O)c1nc2ccccc2s1` the figure was 2.62%; with `CN(c1ncccc1CNS(=O)(=O)N1CCOCC1)C1CCCCC1`, 18.5%.
With `CCCc1noc(C2CC(=O)N(CCN(C)C)C2)n1` (stereo unspecified) the figure was -18.6%; with `Cc1nc2c(c(NCCc3nc4c(s3)CCCC4)n1)CCNCC2`, -9.11%; with `CCc1cnc(NCC2OCCc3ccccc32)nc1` (stereo unspecified), 3.74%.
Turning to `CC(C)c1nnc2sc(CC3CCS(=O)(=O)CC3)nn12`, the cytotoxicity at 70.5 h is -8.54%.
For `Cc1ccc(CNC(=O)c2cc(CN3CCC(O)CC3)on2)s1`, the cytotoxicity at 70.5 h was -18%.
On to `COc1ccccc1CCN1CCCC(CN(C)Cc2c[nH]c(C)n2)C1` (stereo unspecified), for which the cytotoxicity at 70.5 h came to 14.9%.
Take `O=C(NC1CC1)c1cccc(S(=O)(=O)NCCc2nc(C3CC3)no2)c1`: the cytotoxicity at 70.5 h was -6.39%.
Turning to `CC(C)c1nc(N2CC[C@@H](N(C)CCc3ccccn3)[C@H](O)C2)no1`, the cytotoxicity at 70.5 h amounted to 13.3%.
`COc1ccc(Cc2ncc3c(n2)CN(C(=O)CCO)C3)cc1`: the cytotoxicity at 70.5 h was 25.1%.
Turning to `CCN1CC(C(=O)N2CCc3cc(C(=O)N(C)C)n(C)c3C2)CCC1=O` (stereo unspecified), the cytotoxicity at 70.5 h is -6.7%.
On to `Cc1cc(NC(C)c2nncn2C2CCCC2)n2nc(C)cc2n1` (stereo unspecified), for which the cytotoxicity at 70.5 h was -6.24%.
With `Cc1cccc(C2CCCN(C(=O)CN3C(=O)CCNC3=O)C2)c1` (stereo unspecified) the figure was -13.9%; with `Cc1cc(CN2CCCn3nc(CCC(=O)O)cc3C2)ccc1F`, 2.51%.
Turning to `NC(=O)c1csc(N2CCN(Cc3cccc4nsnc34)CC2)n1`, the cytotoxicity at 70.5 h came to 15.7%.
Regarding `O=C(Nc1ccc(F)c(F)c1)N1CCC2(CCC(=O)N(C3CC3)C2)CC1`, the cytotoxicity at 70.5 h was -5.15%.
With `C=C(C)CNc1ccc(C(=O)N(CC)Cc2nccn2C)cn1` the figure was 25.1%; with `Cc1nn(CCO)cc1CN1CCC(N2CCC(O)CC2)CC1`, 1.99%.
On to `CN(Cc1c[nH]nc1-c1ccc(F)cc1F)Cc1nccn1C`, for which the cytotoxicity at 70.5 h worked out at 21.7%.
With `CC(C)S(=O)(=O)N1C[C@H]2OC(=O)N(CCc3cccc(Cl)c3)[C@H]2C1` the figure was -4.98%; with `CCn1cc(-c2cc(C(=O)N3CCOCC3)c3cc(Cl)ccc3n2)cn1`, -5.95%; with `CC(C)Cc1cc(CNC(=O)c2cccc3c2OCC3)no1`, -9.93%.
As to `N[C@@H]1c2ccccc2C2(CCN(c3ncccc3C(F)(F)F)CC2)[C@H]1O`, the cytotoxicity at 70.5 h turned out to be 44.1%.
On to `CCn1ccc(C(=O)N(C)Cc2cnn(-c3cccc(OC)c3)c2)n1`, for which the cytotoxicity at 70.5 h was -11.2%.
For the molecule `c1ccc(OCCNc2ncnc3sc4c(c23)CCNC4)cc1`, the cytotoxicity at 70.5 h stood at 1.62%.
With `COc1ccccc1CN1C(=O)O[C@@H]2CN(c3nc(C)cc(C)n3)C[C@@H]21`, the cytotoxicity at 70.5 h was -3.9%.
`O=C(CNCC1(O)CCCN(Cc2cccc(F)c2F)C1=O)NC1CC1` (stereo unspecified): the cytotoxicity at 70.5 h was -1.7%.
On to `CCN(Cc1ccncc1)C(=O)c1cn(CC2CCCNC2)nn1` (stereo unspecified), for which the cytotoxicity at 70.5 h was -17.4%.
For `Cc1nn(C)c(C)c1CN(Cc1cccn1-c1ccccn1)C(C)C`, the cytotoxicity at 70.5 h stood at 9.47%.
For the molecule `C[C@@H]1CN(c2cc(N3CCC(O)CC3)ncn2)C[C@@]1(O)C1CC1`, the cytotoxicity at 70.5 h was -0.962%.
Regarding `Cn1cccc1C(=O)N1CCC2(CC1)c1nc[nH]c1CCN2S(C)(=O)=O`, the cytotoxicity at 70.5 h is -3.6%.
Consider `Cc1cc(C)nc(NCCSc2cnn[nH]2)n1`, for which the cytotoxicity at 70.5 h was -2%.
With `CC(C)N1CCN(CCn2cnc3c(F)cccc3c2=O)CC1` the figure was -2.82%; with `Cn1c(-c2ccccc2Cl)nc2cc(C(=O)NCC3(C)COC3)cnc21`, 4.56%.
For `CCC(CC)NCC(c1ccccn1)N1CCOCC1` (stereo unspecified), the cytotoxicity at 70.5 h was found to be 2.77%.
Take `O=C(NC1CC(=O)N(C2Cc3ccccc3C2)C1)c1cc[n+]([O-])cc1` (stereo unspecified): the cytotoxicity at 70.5 h stood at 9.2%.
Consider `CSCc1noc(CN2CCCCC2CCc2ccc(O)cc2)n1` (stereo unspecified), for which the cytotoxicity at 70.5 h is -2.26%.
For `COc1cc(C)c(-c2ccc(F)c3c2OC(CN)C3)cc1C` (stereo unspecified), the cytotoxicity at 70.5 h is -0.0935%.
As for `CC(C)c1cc(C2CCN(C(=O)Cn3cnnn3)CC2)[nH]n1`, the cytotoxicity at 70.5 h is -6.46%.
With `O=C(c1cccc(O)c1)N1C[C@@H](CN2CCCCC2)[C@@H](CO)C1` the figure was -4.01%; with `OCC1(O)CCN(c2ncccc2C(F)(F)F)CC1`, -0.128%; with `Cc1cnc(-c2cccc(-c3ccn(CCCO)n3)c2)nc1N(C)C`, -3.76%.
In the case of `CNC(=O)c1nc(CN2CCOC(Cc3ccc(F)cc3)C2)no1` (stereo unspecified), the cytotoxicity at 70.5 h is -15.2%.
For `CC(C)(CN1CCCC1)CN1CCC(Cn2cc(C3CC3)nn2)CC1`, the cytotoxicity at 70.5 h was -9.26%.
Take `COC(C)(C)Cn1ccnc1-c1cccc(C(C)N(C)C)c1` (stereo unspecified): the cytotoxicity at 70.5 h was -7.08%.
As to `CS(=O)(=O)N1CCc2[nH]nc(Cc3cccs3)c2C1`, the cytotoxicity at 70.5 h was -2.7%.
`CCOc1ccccc1CN(CC)Cc1ccc(S(=O)(=O)NC)cc1`: the cytotoxicity at 70.5 h was -5.11%.
Take `Cc1cc(C)nc(N2CC[C@@]3(O)CCN(S(=O)(=O)N(C)C)C[C@H]3C2)n1`: the cytotoxicity at 70.5 h came out at 16.5%.
On to `COC[C@H](C)Nc1cc(C)c2ccc(SC)cc2n1`, for which the cytotoxicity at 70.5 h was -8%.
For `COc1cc(OC)c2nc(NCCN3CCNC3=O)cc(C)c2c1`, the cytotoxicity at 70.5 h came to 2.59%.
With `COC(=O)N1CCC(c2nnc(Cn3ccnc3)n2C)CC1` the figure was -2.68%; with `c1ccc(-c2n[nH]c(CCNc3nnc(C4CCC4)o3)n2)cc1`, -7.22%; with `CCN(Cc1ccncc1)C(=O)c1cn(CCC2CCCCC2)nn1`, -16%.
As to `CC(C)Cc1nc(CN2CC(=O)N(C)c3ccccc3C2=O)no1`, the cytotoxicity at 70.5 h is 2.18%.
With `CN(C)C(=O)CN1C[C@@H]2CC[C@H](C1)N(Cc1ccc3nsnc3c1)C2` the figure was 3.82%; with `COc1ccccc1CC(=O)N1C[C@H]2CC[C@@H]1CN(Cc1cscn1)C2`, -12.1%; with `O=C1CC2(CCN(Cc3ccc4cccc(O)c4n3)CC2)CN1`, -5.81%.
`CC(=O)c1ccc(C(=O)N2C[C@@H]3CC[C@H](C2)N(Cc2ccccc2)C3)s1`: the cytotoxicity at 70.5 h is 4.96%.
Regarding `c1nc(CCNc2nc(C3CC3)nc3c2CCNCC3)c[nH]1`, the cytotoxicity at 70.5 h is -10.1%.
On to `CC(C)[C@@H]1CN(C(=O)CCc2ccc(F)cc2)C[C@H]1C(=O)O`, for which the cytotoxicity at 70.5 h was 28.6%.
Regarding `CCN(C)CC(=O)N1CCc2nc(NC)nc(C(=O)N3CCCC3)c2C1`, the cytotoxicity at 70.5 h turned out to be 2.56%.
`CC(C)CN1CC(c2nc(CCc3ccccc3)n[nH]2)CC1=O` (stereo unspecified): the cytotoxicity at 70.5 h was -9.23%.
For the molecule `FC(F)(F)c1ccc(-c2noc3c2CN(CC2CCCO2)CC3)cc1` (stereo unspecified), the cytotoxicity at 70.5 h is -10.2%.
With `COc1nc2ccccc2cc1CN1CCCC(CNC(C)=O)C1` (stereo unspecified) the figure was -4.14%; with `Cc1cc(=O)c(C(=O)N2CCCCC2c2ccc(F)cc2)c[nH]1` (stereo unspecified), -4.63%; with `Cc1noc(C)c1C1CCCN1C(=O)CN1C(=O)OC(C)(C)C1=O` (stereo unspecified), 26.8%.
For `CC(=O)N(C/C=C/c1ccccc1)CCO`, the cytotoxicity at 70.5 h turned out to be 7.41%.
On to `NCC1CCN(c2nc(C3CCCC3)nc3c2CCNCC3)C1` (stereo unspecified), for which the cytotoxicity at 70.5 h is 21.5%.
Regarding `COC1CCCN(Cc2cc(O)c3cc(C)cc(C)c3n2)C1` (stereo unspecified), the cytotoxicity at 70.5 h is -2.68%.
For the molecule `CN1CCCCC1CCC(=O)NCCSc1cnn[nH]1` (stereo unspecified), the cytotoxicity at 70.5 h was -2.59%.
`CC(C)N1CCC(C(=O)N[C@H](C(=O)O)c2cccc(F)c2F)CC1`: the cytotoxicity at 70.5 h was -1.13%.
With `Nc1nc(CC(=O)N2CCCC(CCc3cccc(F)c3)C2)cc(=O)[nH]1` (stereo unspecified) the figure was -12.2%.
As to `CC1(C)CNC(=O)c2nc(-c3ccccc3)[nH]c2C1`, the cytotoxicity at 70.5 h was found to be 14.6%.
With `CCCc1nnc(NC2CCN(Cc3ccc(F)c(F)c3)CC2)o1` the figure was -6.56%.
